The MIC is the least concentration at which growth counts as inhibited.

Like-named read-outs stand apart in the source and are kept apart here. Where only a bound is given, the exact number is not on record here.

For assay [1] the following is noted: cited from earlier work.
The test system of the next assay is Candida albicans SC5314. Briefly: In vivo fungal kidney burden candidiasis model. On the set-up: species or system BALB/c mice. The conditions noted are these: fluconazole 3 mg/kg p.o. The method, then:
A murine model of systemic candidiasis was established according to a previously described method ([44]). BALB/c mice were infected with a 0.1-ml inoculum (1 × 10^5 to 5 × 10^5 CFU) of Candida albicans SC5314 cells by the intravenous route on day 0. Compounds were tested at doses of 60 mg/kg. Administration of compound was initiated 24 h prior (day −1) to infection (day 0) by the intraperitoneal route, dosing twice a day for 4 days (day −1 to day 2). ZAC307 was also evaluated with administration of the compounds given after the infection at day 0 (no pretreatment) and following dosing twice a day for 3 days (days 0 to 2). Fluconazole was used as a comparator drug. Six mice were used for each group, and the untreated control group was exposed to the vehicle alone. ZAC989 and ZAC307 were formulated by taking 60 mg of compound and adding this to 2 ml and 4 ml of 0.1 N NaOH, respectively. After mixing and sonication of the resulting solutions, 4 ml of purified water was added. The pH was adjusted to 9.0 with 0.1 N HCl solution, followed by the addition of 90 mg of NaCl. The solutions were then diluted to 10 ml and filtered through a 0.22-μm polyvinylidene difluoride (PVDF) filter. Sample collection and processing were performed as follows. Twelve hours after the last dose, all treated and untreated animals were sacrificed by cervical dislocation and kidneys were collected in 3 ml of sterile normal saline. The samples were homogenized, serially diluted, and plated on Sabouraud dextrose agar (SDA). SDA plates were incubated for 24 to 48 h at 35°C, and CFU were enumerated and reported as log CFU/kidney. The endpoint was mean log CFU of fungi in kidneys of treated animals compared to that of untreated animals. The study was conducted in conformance with an application submitted to the Committee for the Purpose of Control and Supervision of Experiments on Animals (CPCSEA), New Delhi, India, after approval from the Institutional Animal Ethics Committee (IAEC).

A further assay deals with C. albicans. Briefly: Resistance study (repeated exposure). It counts as cell-based, Candida albicans. The settings on record: SDwoz medium, 36-day period, 22 passages. The method, then: The propensity for resistance development was investigated as also described previously ([41]), but with the following modifications. […] Over a 36-day period, culture aliquots of 100 μl were periodically (every 1 to 2 days) transferred (passaged) to new culture tubes with 900 μl of fresh medium and fresh compound. […] Cells were passaged a total of 22 times, and cultures were periodically tested for antifungal susceptibility by following the protocol for antifungal susceptibility testing, as described above.

For assay [2], the system named is C. albicans SC5314. Briefly: Time-kill assay. It counts as cell-based, Candida albicans. The settings on record: 0.5 μg/ml AMB, 3.6 μg/ml ZAC989, 4.4 μg/ml EDTA, 4.2 μg/ml TPEN; up to 24 h. The procedure:
C. albicans SC5314 cells (10^5 CFU/ml) were incubated in 10 ml of RPMI medium at 30°C with gentle agitation (150 rpm) in the presence of EDTA (15 μM), TPEN (10 μM), ZAC989 (10 μM), or AMB (0.5 μM). At the desired time points (0, 3, 5.5, and 24 h), a 100-μl aliquot was removed for each test condition and serially diluted (10-fold) in saline (0.9% NaCl), and 30 μl of each dilution was plated on YPD agar plates. The colony count on each YPD plate was determined after incubation at 30°C for 48 h ([40]). C. albicans cells treated with DMSO (1%, vol/vol) served as a control.

For another assay, the system named is A. fumigatus. Also noted: method as in PMID 27401578. The conditions noted are these: monotherapy; cited from earlier work.
The next assay concerns C. krusei ATCC 6258. Briefly: Antifungal susceptibility testing (MIC). The class given is cell-based, Candida krusei. The conditions noted are these: Pichia kudriavzevii, ATCC6258; at least 50% growth inhibition, RPMI, 24 h, 34°C. The procedure:
(§1) Antifungal susceptibility testing was carried out as described previously ([38], [39]), with a few modifications. Briefly, for each yeast or mold growth inhibition assay, frozen stocks of yeast cells or spores were diluted to a final concentration of 0.5 × 10^5 to 2.5 × 10^5 CFU/ml in sterile water. ZAC989, ZAC307, and ZAC623 were dissolved in DMSO to 10 mM stocks from which half-log serial dilutions were prepared. Growth assays were subsequently performed by pipetting 3 μl of compound dissolved in DMSO (giving a final concentration of 1.5% DMSO), 100 μl of cell-spore suspension, and 97 μl of 2× RPMI medium (20.8 g/liter of RPMI 1640 medium, 69.06 g/liter of morpholinepropanesulfonic acid [MOPS], 36 g/liter of glucose) into a microtiter plate that was incubated for 24 h (yeasts) or 48 to 72 h (molds) at 34°C. Fungal growth was determined spectrophotometrically by optical density reading of each well at a wavelength of 492 nm on a Victor X5 (Perkin-Elmer) plate reader. […] Standard errors between repeated experiments were generally below 5%. The growth effect of exogenous addition of various divalent metals was evaluated by performing the antifungal susceptibility assay in the presence of 5 μM ZAC989 or ZAC307 and with increasing concentrations (0.003 to 50 μM) of ZnSO4, CuSO4, (NH4)2Fe(SO4)2, MgCl2, and CaCl2.

Assay [3] concerns C. albicans SC5314. The assay can be described thus: Antifungal susceptibility testing (MIC). The class given is cell-based, Candida albicans. The method, then: as §1
Assay [4] in a line: Fluorescence-based competition assay using FluoZin-3 (compound-Zn2+ dissociation constant). The class given is binding. The conditions noted are these: FluoZin-3 competition, PBS pH 7.4, room temperature; read-out: Compound-Zn^2+ KD. The method, then:
The dissociation constant (Kd) of zinc to zinc-attenuating compounds was determined at room temperature using FluoZin-3 (F24194; […] Testing buffer consisted of PBS (pH 7.4) with 200 nM ZnCl2 and 500 nM FluoZin-3. In a microtiter plate, 98 μl of testing buffer was mixed with 2 μl of compound at a range of concentrations to determine the half-maximal inhibitory concentration (IC50). Testing plates were incubated for 2 min before being read at an excitation wavelength of 485 nm and an emission wavelength of 516 nm with a Fluoroskan Ascent microplate fluorometer (Thermo Fisher Scientific).

Assay [5] concerns C. parapsilosis ATCC 22019. The assay can be described thus: Antifungal susceptibility testing (MIC). It counts as cell-based, Candida parapsilosis. The conditions noted are these: Lodderomyces parapsilosis, ATCC22019; at least 50% growth inhibition, RPMI, 24 h, 34°C. The method, then:
as §1

Regarding `COc1ccc(N(CC(=O)O)CC(=O)O)c(OCCOc2cc(-c3c4cc(F)c(=O)cc-4oc4cc(O)c(F)cc34)ccc2NCC(=O)O)c1` [FluoZin-3], in [1] (read-out: Kd (FluoZin-3–Zn^2+)), the Kd is 15 nM.

Regarding `OC(Cn1cncn1)(Cn1cncn1)c1ccc(F)cc1F` [Fluconazole, fluconazole, reference compound], the “Mean log CFU/kidney” value with Candida albicans SC5314 is 3.02 ± 0.22 log CFU/kidney. In addition, the “Mean log CFU/kidney reduction” value with Candida albicans SC5314 (vs untreated control) turned out to be 2.78 log CFU/kidney. Moreover, the “change in the MIC after repeated exposure” value with C. albicans was “significant increase in the MIC”.

For `C[C@@H]1[C@H](O)[C@@H](C)/C=C/C=C/C=C/C=C/C=C/C=C/C=C/[C@H](O[C@@H]2O[C@H](C)[C@@H](O)[C@H](N)[C@@H]2O)C[C@@H]2O[C@](O)(C[C@@H](O)C[C@@H](O)[C@H](O)CC[C@@H](O)C[C@@H](O)CC(=O)O[C@H]1C)C[C@H](O)[C@H]2C(=O)O` [amphotericin B], in the assay with C. albicans SC5314 [2], the “time-kill activity (fungistatic or fungicidal)” value is reported as “fungicidal activity after 3 h of exposure”.

In the case of `c1cnc2c(c1)ccc1cccnc12` [phenanthroline], the “survival and fungal burden” value in the assay on A. fumigatus was “significant improvements in survival with concomitant reduction in fungal burden”.

As to `Cc1cc(N)n(-c2cc(N3CC[C@H](Oc4cnccc4C#N)C3)ncn2)n1` [ZAC623, 3-[(3S)-1-[6-(5-amino-3-methyl-pyrazol-1-yl)pyrimidin-4-yl]pyrrolidin-3-yl]oxypyri-dine-4-carbonitrile], the MIC is over 54 µg/mL against C. krusei ATCC 6258; over 54 µg/mL with C. albicans SC5314 [3] (Candida albicans, SC5314, 24 h, at least 50% growth inhibition, RPMI, 24 h, 34°C, read-out: MIC); over 54 µg/mL in assay [5]. Besides, the “growth-inhibitory activity (in words)” value with C. albicans SC5314 [3] is “did not display growth-inhibitory activity”. In addition, the Kd in assay [4] is over 6000 nM.

For the compound `COc1cc(O)c(-c2nc3c(CNCc4ccccn4)cccc3o2)cc1OC` [Zinbo-5], the Kd in assay [1] (read-out: affinity constant for zinc) was 2.2 nM.

The record behind these values is paper PMC5923171, “Novel Zinc-Attenuating Compounds as Potent Broad-Spectrum Antifungal Agents with In Vitro and In Vivo Efficacy” (Antimicrobial Agents and Chemotherapy, 2018).
